Tested on: β-catenin-TCF-mediated reporter transcription activity in Colo 205 cells
Experiment: Colo 205 reporter assay (TCF/LEF luciferase)
Type: cell-based
Conditions: Colo 205 TCF/LEF luciferase reporter, five hours after addition of compound; read-out: TCF reporter Colo205 IC50
Excerpt: The compounds of the invention described herein were screened using the assay procedure for β-catenin-TCF-mediated reporter transcription activity described below.
Reporter cell lines were generated by stably transfecting cells of cancer cell lines (e.g., colon cancer) with a plasmid reporter construct (From SABiosciences, a QIAGEN company) that includes TCF/LEF promoter driving expression of the firefly luciferase gene. TCF/LEF reporter constructs were made in which TCF/LEF promoter, a promoter with optimal number of TCF/LEF binding sites designed by SABiosceinces, was linked upstream of the firefly luciferase gene. This construct could also include a puromycin resistance gene as a selectable marker. This construct could also be used to stably transfect Colo 205 cells, a colon cancer cell line having a mutated APC gene that causes a constitutively active β-catenin. A control cell line was generated using another plasmid construct containing the luciferase gene under the control of a CMV basal promoter which is not activated by p-catenin.
Colo 205 Cultured cells with a stably transfected reporter construct were plated at approximately 10,000 cells per well into 384 well multi-well plates for twenty four hours. The testing compounds were then added to the wells in 2-fold serial dilutions using a twenty micromolar top concentration. A series of control wells for each cell type received only compound solvent. Five hours after the addition of compound, reporter activity for luciferase was assayed, by addition of the SteadyGlo luminescence reagent (Promega). The reporter luminescence activity was measured using Pherastar plate reader (BMG Labtech). Readings were normalized to DMSO only treated cells, and normalized activities were then used in the IC50 calculations. The Colo 205 reporter assay data are summarized in Table 45: A<0.3 μM; 0.3 μM≤B<1.0 μM; 1.0 μM≤C<5.0 μM; D≥5.0 μM
Colo 205 reporter assay data has also been obtained for certain R-isomers of Formula (I) wherein R^4 is —H or -D, and wherein the carbon to which R^3 and R^4 are attached (C2 carbon of Formula (X)) has R stereochemistry; such epimeric compounds are represented using the suffix “B” attached to the Compound described herein having the S stereochemistry at the carbon to which R^3 and R^4 are attached: […]

Row | IC50 [nM] | Structure (SMILES)
1 | ≥ 5000 | C[C@H]1C(=O)Nc2cnc(NC3CC(C)(OCc4cc(F)c(F)c(F)c4)C3)nc2N1C (stereo in doubt) [Compound 289, (S)-7,8-dimethyl-2-((cis-3-methyl-3-((3,4,5-trifluorobenzyl)oxy)cyclobutyl)amino)-7,8-dihydropteridin-6(5H)-one]
2 | ≥ 5000 | Cc1nc(NC2CC(C)(OCc3cc(F)c(F)c(F)c3)C2)nc2c1NC(=O)[C@H](C)N2C (stereo in doubt) [Compound 290, (7S)-4,7,8-trimethyl-2-((cis-3-methyl-3-((3,4,5-trifluorobenzyl)oxy)cyclobutyl)amino)-7,8-dihydropteridin-6(5H)-one]
3 | 300 to 1000 | CC[C@H]1C(=O)N(C)c2cnc(NCc3cnn(Cc4ccc(F)cc4)c3)nc2N1C(C)C [Compound 52, (7S)-7-ethyl-2-(((1-(4-fluorobenzyl)-1H-pyrazol-4-yl)methyl)amino)-8-isopropyl-5-methyl-7,8-dihydropteridin-6(5H)-one]

Same assay, conditions: Homo sapiens, COLO 205, 5 h, Colo 205 TCF/LEF luciferase reporter, five hours after addition of compound; read-out: TCF reporter Colo205 IC50

Row | IC50 [nM] | Structure (SMILES)
4 | ≥ 5000 | CNc1ccc(Cn2cc(CNc3nc(C)c4c(n3)N(C)[C@@H](C)C(=O)N4)cn2)cn1 [Compound 10, (7S)-4,7,8-trimethyl-2-(((1-((6-(methylamino)pyridin-3-yl)methyl)-1H-pyrazol-4-yl)methyl)amino)-7,8-dihydropteridin-6(5H)-one]
5 | ≥ 5000 | O=C1Nc2cnc(NCc3cnn(Cc4ccc(F)cc4)c3)nc2N[C@H]1CCO [Compound 11, (7S)-2-(((1-(4-Fluorobenzyl)-1H-pyrazol-4-yl)methyl)amino)-7-(2-hydroxyethyl)-7,8-dihydropteridin-6(5H)-one]
6 | 300 to 1000 | Cc1nc(NCc2cnn(Cc3ccnc(N(C)C)c3)c2)nc2c1NC(=O)[C@H](C)N2C [Compound 12, (7S)-2-(((1-((2-(dimethylamino)pyridin-4-yl)methyl)-1H-pyrazol-4-yl)methyl)amino)-4,7,8-trimethyl-7,8-dihydropteridin-6(5H)-one]
7 | ≥ 5000 | O=C1Nc2cnc(NCc3cnn(CCc4ccc(F)cc4)c3)nc2N[C@H]1CCO [Compound 13, (7S)-2-(((1-(4-fluorophenethyl)-1H-pyrazol-4-yl)methyl)amino)-7-(2-hydroxyethyl)-7,8-dihydropteridin-6(5H)-one]
8 | < 300 | Cc1nc(NCc2cnn(Cc3cc(F)c(F)cc3F)c2)nc2c1N(C)C(=O)[C@H](C)N2C [Compound 16, (7S)-4,5,7,8-tetramethyl-2-(((1-(2,4,5-trifluorobenzyl)-1H-pyrazol-4-yl)methyl)amino)-7,8-dihydropteridin-6(5H)-one]
9 | < 300 | Cc1nc(NCc2cnn(Cc3ccc(F)c(F)c3F)c2)nc2c1N(C)C(=O)[C@H](C)N2C [Compound 17, (7S)-4,5,7,8-tetramethyl-2-(((1-(2,3,4-trifluorobenzyl)-1H-pyrazol-4-yl)methyl)amino)-7,8-dihydropteridin-6(5H)-one]
10 | < 300 | Cc1nc(NCc2cnn(Cc3c(F)cc(F)cc3F)c2)nc2c1N(C)C(=O)[C@H](C)N2C [Compound 18, (7S)-4,5,7,8-tetramethyl-2-(((1-(2,4,6-trifluorobenzyl)-1H-pyrazol-4-yl)methyl)amino)-7,8-dihydropteridin-6(5H)-one]
11 | 300 to 1000 | CO[C@H](C)[C@H]1C(=O)N(C)c2cnc(NCc3cnn(Cc4ccc(F)cc4)c3)nc2N1C [Compound 20, (7S)-2-(((1-(4-fluorobenzyl)-1H-pyrazol-4-yl)methyl)amino)-7-((R)-1-methoxyethyl)-5,8-dimethyl-7,8-dihydropteridin-6(5H)-one]
12 | < 300 | CO[C@H](C)[C@H]1C(=O)N(C)c2cnc(NCc3cnn(Cc4cc(F)c(F)c(F)c4)c3)nc2N1C [Compound 21, (7S)-7-((R)-1-methoxyethyl)-5,8-dimethyl-2-(((1-(3,4,5-trifluorobenzyl)-1H-pyrazol-4-yl)methyl)amino)-7,8-dihydropteridin-6(5H)-one]
13 | < 300 | C#CC[C@H]1C(=O)N(C)c2cnc(NCc3cnn(Cc4cc(F)c(F)c(F)c4)c3)nc2N1C [Compound 25, (7S)-5,8-dimethyl-7-(prop-2-yn-1-yl)-2-(((1-(3,4,5-trifluorobenzyl)-1H-pyrazol-4-yl)methyl)amino)-7,8-dihydropteridin-6(5H)-one]
14 | < 300 | C#CC[C@H]1C(=O)N(C)c2cnc(NCc3cnn(Cc4ccc(F)cc4)c3)nc2N1C [Compound 26, (7S)-2-(((1-(4-fluorobenzyl)-1H-pyrazol-4-yl)methyl)amino)-5,8-dimethyl-7-(prop-2-yn-1-yl)-7,8-dihydropteridin-6(5H)-one]
15 | 300 to 1000 | C[C@H]1C(=O)N(C)c2cnc(NCc3cnn(Cc4ccc(F)cc4)c3)nc2N1C [Compound 27, (7S)-2-(((1-(4-fluorobenzyl)-1H-pyrazol-4-yl)methyl)amino)-5,7,8-trimethyl-7,8-dihydropteridin-6(5H)-one]
16 | < 300 | Cc1nc(NCc2cnn(Cc3ccc(F)c(F)c3)c2)nc2c1N(C)C(=O)[C@H](C)N2C [Compound 28, (7S)-2-(((1-(3,4-difluorobenzyl)-1H-pyrazol-4-yl)methyl)amino)-4,5,7,8-tetramethyl-7,8-dihydropteridin-6(5H)-one]
17 | < 300 | Cc1nc(NCc2cnn(Cc3ccc(F)cc3F)c2)nc2c1N(C)C(=O)[C@H](C)N2C [Compound 29, (7S)-2-(((1-(2,4-difluorobenzyl)-1H-pyrazol-4-yl)methyl)amino)-4,5,7,8-tetramethyl-7,8-dihydropteridin-6(5H)-one]
18 | < 300 | CCN1C(=O)[C@H](C)N(CC)c2nc(NCc3cnn(Cc4cc(F)c(F)c(F)c4)c3)ncc21 [Compound 31, (7S)-5,8-diethyl-7-methyl-2-(((1-(3,4,5-trifluorobenzyl)-1H-pyrazol-4-yl)methyl)amino)-7,8-dihydropteridin-6(5H)-one]
19 | 300 to 1000 | CC[C@H]1C(=O)N(C)c2cnc(NCc3cnn(Cc4cc(F)c(F)c(F)c4)c3)nc2N1CC(F)(F)F [Compound 33, (7S)-7-ethyl-5-methyl-2-(((1-(3,4,5-trifluorobenzyl)-1H-pyrazol-4-yl)methyl)amino)-8-(2,2,2-trifluoroethyl)-7,8-dihydropteridin-6(5H)-one]
20 | < 300 | CCN1C(=O)[C@](C)(CC)N(CC)c2nc(NCc3cnn(Cc4cc(F)c(F)c(F)c4)c3)ncc21 [Compound 35, (7S)-5,7,8-triethyl-7-methyl-2-(((1-(3,4,5-trifluorobenzyl)-1H-pyrazol-4-yl)methyl)amino)-7,8-dihydropteridin-6(5H)-one]
21 | < 300 | CC[C@H]1C(=O)N(C)c2cnc(NCc3cnn(Cc4cc(F)c(F)c(F)c4)c3)nc2N1C(C)C [Compound 36, (7S)-7-ethyl-8-isopropyl-5-methyl-2-(((1-(3,4,5-trifluorobenzyl)-1H-pyrazol-4-yl)methyl)amino)-7,8-dihydropteridin-6(5H)-one]
22 | < 300 | CCN1C(=O)[C@H](CCO)N(CC)c2nc(NCc3cnn(Cc4cc(F)c(F)c(F)c4)c3)ncc21 [Compound 37, (7S)-5,8-diethyl-7-(2-hydroxyethyl)-2-(((1-(3,4,5-trifluorobenzyl)-1H-pyrazol-4-yl)methyl)amino)-7,8-dihydropteridin-6(5H)-one]
23 | < 300 | CCN1C(=O)[C@H](CCO)N(CC)c2nc(NCc3cnn(Cc4ccc(F)cc4)c3)ncc21 [Compound 38, (7S)-5,8-diethyl-2-(((1-(4-fluorobenzyl)-1H-pyrazol-4-yl)methyl)amino)-7-(2-hydroxyethyl)-7,8-dihydropteridin-6(5H)-one]
24 | 1000 to 5000 | Cc1nc(NCc2ccc(-c3ccc(F)cc3)o2)nc2c1NC(=O)[C@H](C)N2C [Compound 40, (7S)-2-(((5-(4-Fluorophenyl)furan-2-yl)methyl)amino)-4,7,8-trimethyl-7,8-dihydropteridin-6(5H)-one]
25 | 300 to 1000 | C[C@H]1C(=O)Nc2cnc(NCc3cnn(Cc4ccc(F)cc4)c3)nc2N1C [Compound 41, (7S)-2-(((1-(4-fluorobenzyl)-1H-pyrazol-4-yl)methyl)amino)-7,8-dimethyl-7,8-dihydropteridin-6(5H)-one]
26 | ≥ 5000 | C[C@H]1C(=O)Nc2cnc(NCc3ccc(-c4ccc(F)cc4)o3)nc2N1C [Compound 43, (7S)-2-(((5-(4-fluorophenyl)furan-2-yl)methyl)amino)-7,8-dimethyl-7,8-dihydropteridin-6(5H)-one]
27 | < 300 | C[C@H]1C(=O)Nc2cnc(NCc3cnn(Cc4cccc(C(F)(F)F)c4)c3)nc2N1C [Compound 45, (7S)-7,8-dimethyl-2-(((1-(3-(trifluoromethyl)benzyl)-1H-pyrazol-4-yl)methyl)amino)-7,8-dihydropteridin-6(5H)-one]
28 | < 300 | CCN1C(=O)[C@H](CCO)N(CC)c2nc(NCc3cnn(Cc4cccc(C(F)(F)F)c4)c3)ncc21 [Compound 49, (7S)-5,8-diethyl-7-(2-hydroxyethyl)-2-(((1-(3-(trifluoromethyl)benzyl)-1H-pyrazol-4-yl)methyl)amino)-7,8-dihydropteridin-6(5H)-one]
